Assay results published in patent publication US7056506B2, “Methods for detecting and inhibiting angiogenesis” (The Regents of the University of California, priority 1998, dated 2006).
“Also recorded” adds a separate entry of the source.

Tests used:
[1] = test system: α5^+ HT29 colon carcinoma cells, CEF's and HUVEC's; assay: Cell adhesion assay, attachment to vitronectin; type: cell-based; settings: vitronectin coating
Description: HT29 integrin α5β1^+ cells, integrin α5β1^− colon carcinoma cells (Varner et al., Mol. Biol. Cell 6:725–740 (1995)), and chick embryo fibroblasts (CEF's) were maintained in DMEM high glucose supplemented with 10% fetal bovine serum (FBS) and gentamycin. Human umbilical vein endothelial cells (HUVEC's) were maintained in M199 medium containing sodium bicarbonate, HEPES, heparin, endothelial cell growth supplement, 20% FBS and gentamycin. Culture media and reagents were from Irvine Scientific (Irvine, Calif.).
The wells of 48 well culture dishes (Costar, Inc.) were coated with 1 μg/ml vitronectin, 2 μg/ml fibronectin (chick embryo fibroblasts and HUVEC's) or 10 μg/ml fibronectin (HT29-α5^+ cells) for 1 hr at 37° C., then blocked with 2% heat denatured BSA in PBS for 1 hr. […]
Cells were allowed to adhere to dishes for 20 min at 37° C. […] Crystal violet was extracted by incubation for 15 min in 10% acetic acid and absorbance at 562 nm determined as an indicator of number of cells bound. […]

[2] = test system: bFGF-induced angiogenesis on the chick CAM; assay: In ovo chick CAM angiogenesis assay, bFGF stimulated; type: in vivo; settings: bFGF stimulated CAM
Description: (§1) Ten day old embryonated chicken eggs (McIntyre Poultry; Ramona Calif.) were candled to illuminate blood vessels under the shell and an area with a minimum of small blood vessels is identified. The CAM was dropped away from the eggshell in this area by grinding a small hole in the mineralized shell and applying pressure to the underlying inner shell membrane. This procedure caused an air pocket to shift from the wide end of the egg to the identified area and forcing a circular region of the CAM approximately 2 cm in diameter to drop away from the shell. A window was cut in the egg shell and a cortisone acetate pre-treated filter disc 5 mm in diameter that had been saturated in 1 μg/ml bFGF, VEGF, TNFα, IL-8 (Genzyme, Inc.; Cambridge Mass.) or saline was placed on the CAM. The window in the shell was sealed with adhesive tape and the egg was incubated for four days.
(§2) Anti-fibronectin antibodies (25 μg in 25 μl) also were applied topically to the CAM.
(§3) Fibronectin, vitronectin and fibronectin fragments (59 pmol in a final volume of 25 μl) were applied to stimulated or unstimulated CAM's. Peptide or small molecule antagonists of α5β1 (at a final serum concentration of 0–25 μM) also were injected intravenously into the chick circulation 24 hr later. CAM's were harvested on the fourth day of stimulation. Blood vessel branch points in the 5 mm filter disk area were counted at 30× magnification in a blinded fashion as a size-independent quantitative indicator of vascular sprouting in response to growth factors. Angiogenesis is characterized by the sprouting of new vessels in response to growth factors. Thus, counting of blood vessel branch points is a useful quantitative means of obtaining an angiogenic index (Brooks et al., In “Methods in Molecular Biology” (Humana Press 1999). At least ten embryos were used per treatment group. Each experiment was performed a minimum of three times.
(§4) Data was evaluated in terms of average number of blood vessel branch points per treatment group +/−standard error of measurement . Statistical analyses were performed using Student's t-test. Representative CAMS from each treatment group were photographed at 10X magnification. In some cases, CAM tissue excised from the egg was frozen in OCT (Baxter; McGraw Park Ill.) in liquid nitrogen, cut into 5 μm sections, air dried and processed for immunohistochemical analysis as described in Example I, except without fixation.

[3] = test system: VEGF-induced angiogenesis on the chick CAM; assay: In ovo chick CAM angiogenesis assay, VEGF stimulated; type: in vivo; settings: VEGF stimulated CAM
Description: as §1, §2, §3, §4

[4] = target: T1, integrin α5β1 (Homo sapiens, UniProt P05556+P08648); assay: Integrin receptor ligand binding assay (biotinylated fibronectin); settings: fibronectin as ligand
T1 construct: Integrin αVβ3 and α5β1 receptor purified from human placenta were obtained from Chemicon International; purchased Chemicon International; host or cells: purified from human placenta (natural tissue)
T1 sequence (P08648 42-894 limits assumed): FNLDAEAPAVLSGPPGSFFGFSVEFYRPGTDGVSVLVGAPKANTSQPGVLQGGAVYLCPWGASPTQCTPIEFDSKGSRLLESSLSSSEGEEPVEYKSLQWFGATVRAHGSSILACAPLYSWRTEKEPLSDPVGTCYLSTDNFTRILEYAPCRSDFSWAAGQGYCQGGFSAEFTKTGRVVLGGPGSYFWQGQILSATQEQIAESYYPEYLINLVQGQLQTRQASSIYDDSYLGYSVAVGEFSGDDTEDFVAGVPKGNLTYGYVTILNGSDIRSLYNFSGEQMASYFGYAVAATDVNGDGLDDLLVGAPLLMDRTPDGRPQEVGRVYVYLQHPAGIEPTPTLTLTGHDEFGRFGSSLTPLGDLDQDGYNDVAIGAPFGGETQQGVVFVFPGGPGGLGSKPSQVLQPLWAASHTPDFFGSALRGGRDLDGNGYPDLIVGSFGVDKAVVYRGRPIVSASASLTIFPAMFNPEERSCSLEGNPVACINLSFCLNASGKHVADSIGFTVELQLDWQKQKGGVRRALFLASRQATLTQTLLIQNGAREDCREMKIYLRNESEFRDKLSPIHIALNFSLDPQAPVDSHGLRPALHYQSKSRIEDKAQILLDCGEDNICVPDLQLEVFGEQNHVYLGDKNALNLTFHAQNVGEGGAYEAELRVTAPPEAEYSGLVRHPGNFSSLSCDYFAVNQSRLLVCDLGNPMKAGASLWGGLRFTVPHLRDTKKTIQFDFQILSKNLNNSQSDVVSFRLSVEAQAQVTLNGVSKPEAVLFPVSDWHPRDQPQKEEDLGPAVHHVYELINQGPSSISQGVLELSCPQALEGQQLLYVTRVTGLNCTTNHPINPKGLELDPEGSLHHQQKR
T1 sequence (P08648 895-1049 partner limits assumed): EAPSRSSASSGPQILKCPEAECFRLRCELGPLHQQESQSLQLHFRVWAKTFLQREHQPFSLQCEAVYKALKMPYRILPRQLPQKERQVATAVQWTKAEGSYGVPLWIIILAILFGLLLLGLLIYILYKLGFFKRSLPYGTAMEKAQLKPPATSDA
T1 sequence (P05556 21-798): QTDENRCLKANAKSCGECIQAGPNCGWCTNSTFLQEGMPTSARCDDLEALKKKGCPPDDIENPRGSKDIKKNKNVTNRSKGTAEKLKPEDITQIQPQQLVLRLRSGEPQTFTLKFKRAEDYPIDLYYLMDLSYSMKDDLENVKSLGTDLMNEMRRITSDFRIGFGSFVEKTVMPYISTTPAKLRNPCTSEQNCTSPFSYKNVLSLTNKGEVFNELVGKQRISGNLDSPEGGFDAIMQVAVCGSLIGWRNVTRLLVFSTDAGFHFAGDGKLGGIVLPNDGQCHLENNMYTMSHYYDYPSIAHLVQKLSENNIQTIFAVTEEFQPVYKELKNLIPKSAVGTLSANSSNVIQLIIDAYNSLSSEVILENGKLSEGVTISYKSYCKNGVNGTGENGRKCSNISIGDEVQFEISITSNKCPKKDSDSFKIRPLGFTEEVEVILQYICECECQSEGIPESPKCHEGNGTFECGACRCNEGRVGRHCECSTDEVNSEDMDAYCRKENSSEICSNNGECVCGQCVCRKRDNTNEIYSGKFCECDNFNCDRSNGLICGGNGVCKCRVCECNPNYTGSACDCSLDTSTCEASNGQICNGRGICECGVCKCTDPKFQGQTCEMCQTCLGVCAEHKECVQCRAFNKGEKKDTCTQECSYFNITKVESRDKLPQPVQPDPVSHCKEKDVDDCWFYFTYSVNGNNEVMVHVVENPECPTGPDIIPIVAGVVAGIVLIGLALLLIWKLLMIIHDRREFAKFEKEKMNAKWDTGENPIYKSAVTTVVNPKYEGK
Protocol: (§5) Integrin αVβ3 and α5β1 receptor purified from human placenta were obtained from Chemicon International. Platelet integrin αIIbβ3 was purified from platelets according to established procedures. Receptors were coated (100 μl/well) on Costar (3590) high capacity binding plates overnight at 4° C. Coating solution was discarded and plates were washed once with blocking/binding (B/B) buffer (50 mM Tris HCl, pH 7.4, 100 mM NaCl, 2 mM CaCl, 1 mM MgCl2, 1 mM MnCl2 and 1% BSA).
(§6) One hundred ten microliters of B/B buffer was applied for 60 min at RT. Thirty μl of biotinylated extracellular matrix protein ligand (fibronectin for integrin α5β1, vitronectin for integrin αVβ3 and fibrinogen for integrin αIIbβ3) plus 50 μl of either SJ749 in B/B buffer or B/B buffer alone were added to each well, and incubated for 25 min at RT. Plates were washed twice with B/B buffer and incubated 1 hr at RT, with anti-biotin alkaline phosphatase (100 μl/well) in B/B buffer. Finally, plates were washed twice with B/B followed by the addition of 100 μl of phosphatase substrate (1.5 mg/ml). Reaction was stopped by adding 2N NaOH (25 μl/well), and the developed color was read at 405 nm.

[5] = target: T2, integrin αVβ3 (Homo sapiens, UniProt P05106+P06756); assay: Integrin receptor ligand binding assay (biotinylated vitronectin); settings: vitronectin as ligand
T2 construct: Integrin αVβ3 and α5β1 receptor purified from human placenta were obtained from Chemicon International; purchased Chemicon International; host or cells: purified from human placenta (natural tissue)
T2 sequence (P06756 31-889 limits assumed): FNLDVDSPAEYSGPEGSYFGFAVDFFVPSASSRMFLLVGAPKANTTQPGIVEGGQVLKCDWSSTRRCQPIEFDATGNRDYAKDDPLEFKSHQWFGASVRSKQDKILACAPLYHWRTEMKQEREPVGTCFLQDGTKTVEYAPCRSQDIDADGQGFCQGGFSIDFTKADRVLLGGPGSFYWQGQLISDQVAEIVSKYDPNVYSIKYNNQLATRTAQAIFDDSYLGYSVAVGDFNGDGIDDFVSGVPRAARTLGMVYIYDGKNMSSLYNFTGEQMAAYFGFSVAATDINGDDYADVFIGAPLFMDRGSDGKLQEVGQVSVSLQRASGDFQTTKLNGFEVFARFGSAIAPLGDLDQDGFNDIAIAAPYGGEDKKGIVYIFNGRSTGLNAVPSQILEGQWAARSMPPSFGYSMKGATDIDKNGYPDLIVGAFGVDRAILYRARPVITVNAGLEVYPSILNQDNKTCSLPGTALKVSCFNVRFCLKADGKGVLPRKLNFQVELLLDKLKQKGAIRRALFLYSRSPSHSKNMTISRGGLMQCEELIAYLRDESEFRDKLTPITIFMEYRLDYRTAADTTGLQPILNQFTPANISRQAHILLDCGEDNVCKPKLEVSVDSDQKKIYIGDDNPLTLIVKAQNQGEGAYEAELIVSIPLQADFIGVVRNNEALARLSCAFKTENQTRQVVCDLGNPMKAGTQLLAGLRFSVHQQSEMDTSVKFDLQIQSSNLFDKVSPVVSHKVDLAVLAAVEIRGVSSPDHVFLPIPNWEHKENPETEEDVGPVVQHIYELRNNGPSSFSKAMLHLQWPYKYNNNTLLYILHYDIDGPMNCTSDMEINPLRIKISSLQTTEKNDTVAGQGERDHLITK
T2 sequence (P06756 891-1048 partner limits assumed): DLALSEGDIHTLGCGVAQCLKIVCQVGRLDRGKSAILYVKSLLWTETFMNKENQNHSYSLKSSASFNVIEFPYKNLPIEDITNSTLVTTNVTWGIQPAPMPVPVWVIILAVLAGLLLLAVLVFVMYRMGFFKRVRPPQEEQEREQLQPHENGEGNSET
T2 sequence (P05106 27-788): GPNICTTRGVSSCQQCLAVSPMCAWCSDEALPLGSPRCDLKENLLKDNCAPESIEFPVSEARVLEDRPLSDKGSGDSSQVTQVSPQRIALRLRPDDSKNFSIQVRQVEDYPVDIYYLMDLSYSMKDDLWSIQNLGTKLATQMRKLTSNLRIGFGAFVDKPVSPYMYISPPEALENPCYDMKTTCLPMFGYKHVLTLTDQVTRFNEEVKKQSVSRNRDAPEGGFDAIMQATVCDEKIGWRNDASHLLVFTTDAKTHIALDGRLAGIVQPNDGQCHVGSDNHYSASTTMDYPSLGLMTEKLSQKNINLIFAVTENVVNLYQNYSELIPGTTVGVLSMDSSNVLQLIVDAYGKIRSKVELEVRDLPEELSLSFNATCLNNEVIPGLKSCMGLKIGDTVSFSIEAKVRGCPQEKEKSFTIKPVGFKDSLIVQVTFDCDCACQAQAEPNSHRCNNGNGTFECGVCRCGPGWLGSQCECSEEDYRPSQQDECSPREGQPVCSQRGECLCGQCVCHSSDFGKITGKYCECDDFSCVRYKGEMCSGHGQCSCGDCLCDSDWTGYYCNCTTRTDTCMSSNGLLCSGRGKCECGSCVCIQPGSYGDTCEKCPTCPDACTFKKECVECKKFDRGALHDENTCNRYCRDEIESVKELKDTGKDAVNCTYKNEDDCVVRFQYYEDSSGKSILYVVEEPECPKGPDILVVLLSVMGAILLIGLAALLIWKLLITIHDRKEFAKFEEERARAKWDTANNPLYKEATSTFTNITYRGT
Protocol: as §5, §6

[6] = test system: growth factor-induced angiogenesis in chick embryos; assay: Chick CAM angiogenesis assay, systemic administration, growth factor not specified; type: in vivo; settings: chick embryo, read-out: amount inhibiting angiogenesis by 50% (converted)
Description: Ten day old embryonated chicken eggs (McIntyre Poultry; Ramona Calif.) were candled to illuminate blood vessels under the shell and an area with a minimum of small blood vessels is identified. The CAM was dropped away from the eggshell in this area by grinding a small hole in the mineralized shell and applying pressure to the underlying inner shell membrane. This procedure caused an air pocket to shift from the wide end of the egg to the identified area and forcing a circular region of the CAM approximately 2 cm in diameter to drop away from the shell. […]
Fibronectin, vitronectin and fibronectin fragments (59 pmol in a final volume of 25 μl) were applied to stimulated or unstimulated CAM's. […] Blood vessel branch points in the 5 mm filter disk area were counted at 30× magnification in a blinded fashion as a size-independent quantitative indicator of vascular sprouting in response to growth factors. […] Thus, counting of blood vessel branch points is a useful quantitative means of obtaining an angiogenic index (Brooks et al., In “Methods in Molecular Biology” (Humana Press 1999). At least ten embryos were used per treatment group. Each experiment was performed a minimum of three times.
Data was evaluated in terms of average number of blood vessel branch points per treatment group +/−standard error of measurement . […]

Cc1cc(C)c(S(=O)(=O)N[C@@H](CNC(=O)C2=NOC3(C2)CC(CNc2ccccn2)N(C(=O)OCc2ccccc2)C3)C(=O)O)c(C)c1 (stereo partly drawn) [SJ749]
effect on cell attachment to vitronectin [1]: ineffective
effect on bFGF-induced angiogenesis [2]: blocked; also recorded: dose dependent inhibitory effect; also recorded: reduced or inhibited angiogenesis in a dose dependent manner
effect on VEGF angiogenesis [3]: did not block
effect on ligand binding to α5β1 [4]: selectively inhibited; also recorded: interfered
effect on ligand binding to αVβ3 and other integrins [5]: substantially less effective
IC50 [6]: 7.5 nM
